Assay results published in patent US20240270762A1, “PENICILLIN-BINDING PROTEIN INHIBITORS” (priority 2021, published 2024).
In brackets after ≈: the same amount, converted by molar mass.

Assays:
[1] = tested on: E. coli 901C; assay: microbe, parasite or virus in culture; type: cell-based; details: Escherichia coli, read-out: MIC E. coli 901C
[2] = target: T1, PBP2 from Neisseria gonorrhoeae (FA19) (Neisseria gonorrhoeae, UniProt P08149); assay: Bocillin-FL fluorescence polarization competition binding, N. gonorrhoeae PBP2; details: fluorescence polarization competition binding assay using Bocillin-FL, read-out: N. gonorrhoeae PBP2 Potency
T1 construct: made in house
From the text: To determine the ability of boronic acid-based test PBP inhibitors to bind Penicillin Binding Proteins (PBPs), Bocillin-FL (fluorescently-labeled penicillin V; ThermoFisher Scientific) was used in a fluorescence polarization (FP) competition binding assay to assess inhibitor binding to PBP3 from Escherichia coli (K-12), PBP3 from Pseudomonas aeruginosa (PAO1), PBP1a and PBP3 from Acinetobacter baumannii (ATCC 19606), and PBP2 from Neisseria gonorrhoeae (FA19). PBPs were cloned and purified as described previously (E. coli PBP3, King, D. T, et al., ACS Infectious Diseases 2015, 1, 175-184; P. aeruginosa PBP3, Han et. al., PNAS 2010, 107 (51), 22002-22007; A. baumannii PBPs, Penwell et. al., Antimicrob. Agents Chemother. 2015, 59 (3), 1680-1689; N. gonorrhoeae PBP2, Singh et. al., J. Biol. Chem. 2019, 294 (38), 14020-14032). To establish assay conditions for competition binding, enzyme titration/saturation binding experiments were initially performed. Bocillin-FL was prepared at 0.2 μM in a buffer comprised of 50 mM Hepes (pH 8.0), 300 mM NaCl and 10% (v/v) glycerol for reactions with E. coli, P. aeruginosa and N. gonorrhoeae PBPs, and 25 mM Tris (pH 8.0), 200 mM NaCl, 10% (v/v) glycerol and 0.005% (v/v) Tween 20 for reactions with A. baumannii PBPs. Saturation binding was performed by mixing 40 μl of PBP solutions ranging in concentrations from 0-24 μM with 40 μl of the 0.2 μM Bocillin-FL solution, in individual wells of a black 384-well microplate. FP was measured immediately upon mixing (Excitation, 490 nm; Emission, 520 nm; g-factor, 0.96), using a Cytation3 (BioTek) microplate reader and measured continuously for up to 120 minutes. […] The competition binding assay (80 μl final volume) was validated using beta-lactams and PBPs at final concentrations of: 1.5 μM for E. coli PBP3; 0.75 μM for P. aeruginosa PBP3; 1 μM for A. baumannii PBP1a; 0.2 μM for A. baumannii PBP3; and 0.25 μM for N. gonorrhoeae PBP2. Bocillin-FL was at 0.1 μM (0.05 μM with A. baumannii PBP1a) and beta-lactam concentrations ranged from 0-1,000 μM. E. coli PBP3 was incubated with increasing concentrations of ampicillin in a black 384-well microplate (Corning) for 30 minutes. P. aeruginosa PBP3 was incubated for 15 minutes with aztreonam, whereas A. baumannii PBP1a and PBP3 were incubated for 15 minutes with meropenem, and then Bocillin-FL was added followed immediately by the FP measurement for up to 60 minutes. […] The beta-lactam potency was reported as the concentration of beta-lactam required to reduce the amount of PBP bound-Bocillin-FL by 50% (EC50). […] Binding assays for boronic acid PBP inhibitors were performed in an identical fashion for the respective PBPs.

T1 sequence (P08149 whole entry): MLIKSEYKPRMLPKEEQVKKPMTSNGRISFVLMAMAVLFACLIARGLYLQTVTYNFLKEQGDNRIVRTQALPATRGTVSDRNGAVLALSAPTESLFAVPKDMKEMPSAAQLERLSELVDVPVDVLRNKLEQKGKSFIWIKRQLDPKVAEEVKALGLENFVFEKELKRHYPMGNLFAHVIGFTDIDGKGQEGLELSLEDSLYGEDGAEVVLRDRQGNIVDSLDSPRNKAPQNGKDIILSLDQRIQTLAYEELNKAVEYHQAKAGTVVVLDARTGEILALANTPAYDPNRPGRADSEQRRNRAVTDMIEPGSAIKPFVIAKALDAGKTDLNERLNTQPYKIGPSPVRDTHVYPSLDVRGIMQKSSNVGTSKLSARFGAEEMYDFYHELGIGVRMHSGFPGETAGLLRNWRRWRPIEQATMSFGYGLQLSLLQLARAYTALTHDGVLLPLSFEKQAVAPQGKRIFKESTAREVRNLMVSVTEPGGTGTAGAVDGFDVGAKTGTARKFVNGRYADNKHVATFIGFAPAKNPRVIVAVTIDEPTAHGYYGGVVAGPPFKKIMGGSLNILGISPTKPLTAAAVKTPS

Row | SMILES | MIC [1] [µg/mL] | EC50 [2] [µM]
1 | NC(C(=O)N[C@H]1Cc2ccc(F)c(C(=O)O)c2OB1O)c1ccc(P(=O)(O)O)cc1 (stereo partly drawn) [Example 14, (3R)-3-(2-amino-2-(4-phosphonophenyl)acetamido)-7-fluoro-2-hydroxy-3,4-dihydro-2H-benzo[e][1,2]oxaborinine-8-carboxylic acid] | > 128 | 50 to 250
2 | CS(=O)(=O)N1CCN(C(=O)N[C@@H](C(=O)N[C@H]2Cc3cccc(C(=O)O)c3OB2O)c2cc(F)c(P(=O)(O)O)c(F)c2)C1=O (single isomer, unassigned) [Example 18] | < 1 | < 10
3 | O=C(O)c1cccc2c1OB(O)[C@@H](NC(=O)C(NC(=O)C1CC1)c1ccc(P(=O)(O)O)cc1)C2 (stereo partly drawn) [Example 30, (3R)-3-(2-(cyclopropanecarboxamido)-2-(4-phosphonophenyl)acetamido)-2-hydroxy-3,4-dihydro-2H-benzo[e][1,2]oxaborinine-8-carboxylic acid] | 8 to 16 (≈ 16.4 to 32.8 µM) | < 10
4 | Nc1nc(C(=O)N[C@@H](C(=O)N[C@H]2Cc3cccc(C(=O)O)c3OB2O)c2ccc(P(=O)(O)O)cc2)cs1 (racemic) [Example 51, (R)-3-((S)-2-(2-aminothiazole-4-carboxamido)-2-(4-phosphonophenyl)acetamido)-2-hydroxy-3,4-dihydro-2H-benzo[e][1,2]oxaborinine-8-carboxylic acid and (R)-3-((R)-2-(2-aminothiazole-4-carboxamido)-2-(4-phosphonophenyl)acetamido)-2-hydroxy-3,4-dihydro-2H-benzo[e][1,2]oxaborinine-8-carboxylic acid] | < 1 | < 10
5 | CS(=O)(=O)N1CCC[C@H]1C(=O)N[C@H](C(=O)N[C@H]1Cc2cccc(C(=O)O)c2OB1O)c1ccc(P(=O)(O)O)cc1 [Example 43, (R)-2-hydroxy-3-((S)-2-((S)-1-(methylsulfonyl)pyrrolidine-2-carboxamido)-2-(4-phosphonophenyl)acetamido)-3,4-dihydro-2H-benzo[e][1,2]oxaborinine-8-carboxylic acid] | 8 to 16 (≈ 13.4 to 26.9 µM) | 50 to 250
6 | O=C(NC(C(=O)N[C@H]1Cc2cccc(C(=O)O)c2OB1O)c1ccc(P(=O)(O)O)cc1)c1ccc(Cl)cn1 (stereo partly drawn) [Example 184, (3R)-3-(2-(5-chloropicolinamido)-2-(4-phosphonophenyl)acetamido)-2-hydroxy-3,4-dihydro-2H-benzo[e][1,2]oxaborinine-8-carboxylic acid] | < 1 | < 10
7 | CCN1CCN(C(=O)NC(C(=O)N[C@H]2Cc3cccc(C(=O)O)c3OB2O)c2ccc(S(=O)(=O)O)cc2)C(=O)C1=O (stereo partly drawn) [Example 189, (3R)-3-(2-(4-ethyl-2,3-dioxopiperazine-1-carboxamido)-2-(4-sulfophenyl)acetamido)-2-hydroxy-3,4-dihydro-2H-benzo[e][1,2]oxaborinine-8-carboxylic acid] | < 1 | < 10
8 | O=C(O)c1cccc2c1OB(O)[C@@H](NC(=O)C(NC(=O)C1CCCCC1)c1ccc(P(=O)(O)O)cc1)C2 (stereo partly drawn) [Example 31, (3R)-3-(2-(cyclohexanecarboxamido)-2-(4-phosphonophenyl)acetamido)-2-hydroxy-3,4-dihydro-2H-benzo[e][1,2]oxaborinine-8-carboxylic acid] | 32 to 64 (≈ 60.3 to 121 µM) | < 10
9 | NC(=O)c1ccc(C(=O)NC(C(=O)N[C@H]2Cc3cccc(C(=O)O)c3OB2O)c2ccc(P(=O)(O)O)cc2)nc1 (stereo partly drawn) [Example 188, (3R)-3-(2-(5-carbamoylpicolinamido)-2-(4-phosphonophenyl)acetamido)-2-hydroxy-3,4-dihydro-2H-benzo[e][1,2]oxaborinine-8-carboxylic acid] | < 1 | < 10
10 | CC(=O)N1CCC[C@@H]1C(=O)N[C@H](C(=O)N[C@H]1Cc2cccc(C(=O)O)c2OB1O)c1ccc(P(=O)(O)O)cc1 [Example 33, (3R)-3-(2-((R)-1-acetylpyrrolidine-2-carboxamido)-2-(4-phosphonophenyl)acetamido)-2-hydroxy-3,4-dihydro-2H-benzo[e][1,2]oxaborinine-8-carboxylic acid] | 32 to 64 (≈ 57.2 to 114 µM) | < 10
11 | O=C(O)c1cccc2c1OB(O)[C@@H](NC(=O)[C@H](NC(=O)N1CCCCC1=O)c1ccc(P(=O)(O)O)cc1)C2 [Example 37, (R)-2-hydroxy-3-((R)-2-(2-oxopiperidine-1-carboxamido)-2-(4-phosphonophenyl)acetamido)-3,4-dihydro-2H-benzo[e][1,2]oxaborinine-8-carboxylic acid] | < 1 | < 10
12 | CCN1CCN(C(=O)N[C@@H](C(=O)N[C@H]2Cc3cccc(C(=O)O)c3OB2O)c2ccc(P(C)(=O)O)cc2)C(=O)C1=O (single isomer, unassigned) [Example 47] | < 1 | < 10
13 | CCN1CCN(C(=O)NC(C(=O)N[C@H]2Cc3cccc(C(=O)O)c3OB2O)c2ccc(P(=O)(O)O)c(O)c2)C(=O)C1=O (stereo partly drawn) [Example 21, (3R)-3-(2-(4-ethyl-2,3-dioxopiperazine-1-carboxamido)-2-(3-hydroxy-4-phosphonophenyl)acetamido)-2-hydroxy-3,4-dihydro-2H-benzo[e][1,2]oxaborinine-8-carboxylic acid] | < 1 | < 10
14 | CS(=O)(=O)N1CCN(C(=O)NC(C(=O)N[C@H]2Cc3cccc(C(=O)O)c3OB2O)c2ccc(P(=O)(O)O)c(F)c2O)C1=O (stereo partly drawn) [Example 48, (3R)-3-(2-(3-fluoro-2-hydroxy-4-phosphonophenyl)-2-(3-(methylsulfonyl)-2-oxoimidazolidine-1-carboxamido)acetamido)-2-hydroxy-3,4-dihydro-2H-benzo[e][1,2]oxaborinine-8-carboxylic acid] | < 1 | < 10
15 | CS(=O)(=O)N1CCN(C(=O)NC(C(=O)N[C@H]2Cc3cccc(C(=O)O)c3OB2O)c2ccc(P(=O)(O)O)c(Cl)c2)C1=O (stereo partly drawn) [Example 11, (3R)-3-(2-(3-chloro-4-phosphonophenyl)-2-(3-(methylsulfonyl)-2-oxoimidazolidine-1-carboxamido)acetamido)-2-hydroxy-3,4-dihydro-2H-benzo[e][1,2]oxaborinine-8-carboxylic acid] | < 1 | < 10
16 | O=C(O)c1cccc2c1OB(O)[C@@H](NC(=O)C(NC(=O)c1ncccc1Cl)c1ccc(P(=O)(O)O)cc1)C2 (stereo partly drawn) [Example 183, (3R)-3-(2-(3-chloropicolinamido)-2-(4-phosphonophenyl)acetamido)-2-hydroxy-3,4-dihydro-2H-benzo[e][1,2]oxaborinine-8-carboxylic acid] | 8 to 16 (≈ 14.3 to 28.6 µM) | < 10
17 | O=C(O)c1c(F)ccc2c1OB(O)[C@@H](NC(=O)C(NC(=O)N1CCN(Cc3ccc(O)c(O)c3Cl)C(=O)C1=O)c1ccc(P(=O)(O)O)cc1)C2 (stereo partly drawn) [Example 8, (3R)-3-(2-(4-(2-chloro-3,4-dihydroxybenzyl)-2,3-dioxopiperazine-1-carboxamido)-2-(4-phosphonophenyl)acetamido)-7-fluoro-2-hydroxy-3,4-dihydro-2H-benzo[e][1,2]oxaborinine-8-carboxylic acid] | < 1 | < 10
18 | CS(=O)(=O)N1CCN(C(=O)NC(C(=O)N[C@H]2Cc3cccc(C(=O)O)c3OB2O)c2ccc(P(=O)(O)O)c(F)c2)C1=O (stereo partly drawn) [Example 12, (3R)-3-(2-(3-fluoro-4-phosphonophenyl)-2-(3-(methylsulfonyl)-2-oxoimidazolidine-1-carboxamido)acetamido)-2-hydroxy-3,4-dihydro-2H-benzo[e][1,2]oxaborinine-8-carboxylic acid] | < 1 | < 10
19 | CCN1CCN(C(=O)NC(C(=O)N[C@H]2Cc3cccc(C(=O)O)c3OB2O)c2c(F)cc(P(=O)(O)O)cc2F)C(=O)C1=O (stereo partly drawn) [Example 25, (3R)-3-(2-(2,6-difluoro-4-phosphonophenyl)-2-(4-ethyl-2,3-dioxopiperazine-1-carboxamido)acetamido)-2-hydroxy-3,4-dihydro-2H-benzo[e][1,2]oxaborinine-8-carboxylic acid] | < 1 | < 10
